Experimental data published in ChEMBL document CHEMBL1201862, “PubChem BioAssay data set” (2004).
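Test compounds were applied to cells in 96-well plates for 48 hours at 5 doses. Here, GI50 denotes the concentration required for 50% inhibition of growth.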 Activity calls are given as the source filed them. No stated cut-off is given here; in the data, active = GI50 up to about 1.1 µM and inactive = higher.

How the values were obtained:
Assay in all cases: NCI anticancer screen, dose series, 48 h
A498 = tested on: A498
OVCAR-4 = tested on: OVCAR-4
MOLT-4 = tested on: MOLT-4
HOP-62 = tested on: HOP-62
NCI-H460 = tested on: NCI-H460
SK-OV-3 = tested on: SK-OV-3
KM12 = tested on: KM12
UACC-62 = tested on: UACC-62
SNB-75 = tested on: SNB-75
NCI-H23 = tested on: NCI-H23
EKVX = tested on: EKVX
OVCAR-5 = tested on: OVCAR-5
LOX IMVI = tested on: LOX IMVI
HCT-116 = tested on: HCT-116
M14 = tested on: M14
RPMI-8226 = tested on: RPMI-8226
A549 = tested on: A549
HL-60 = tested on: HL-60
SK-MEL-28 = tested on: SK-MEL-28
NCI/ADR-RES = tested on: NCI/ADR-RES

Measured: GI50

[N-]=[N+]=CC(=O)c1ccccc1C#CCCc1ccccc1
inactive: A498 28.4 µM | OVCAR-4 44.2 µM | MOLT-4 12.1 µM | HOP-62 31.6 µM | NCI-H460 23.2 µM | SK-OV-3 15.1 µM | KM12 41.2 µM | UACC-62 18.6 µM | SNB-75 15.6 µM | NCI-H23 21.5 µM | EKVX 24.5 µM | OVCAR-5 50.5 µM | LOX IMVI 30.1 µM | HCT-116 16.6 µM | M14 38.8 µM | RPMI-8226 14 µM | A549 27.2 µM | HL-60 8.05 µM | SK-MEL-28 48.2 µM

CN(C)CCCCN1CCc2c(n(C)c3ccccc23)C1=O
inactive: MOLT-4 50.6 µM | HOP-62 38.7 µM | NCI/ADR-RES > 67.8 µM | SK-OV-3 > 63.7 µM | KM12 44.4 µM | UACC-62 17.3 µM | SNB-75 22.3 µM | NCI-H23 54.2 µM | EKVX 36 µM | LOX IMVI 19.4 µM | HCT-116 22.4 µM | M14 18.4 µM | A549 50.6 µM | HL-60 51.4 µM | SK-MEL-28 16.7 µM

CCCCCCCCCCC(C)CCCCCCC(=O)O (configuration not stated)
inactive: A498 > 100 µM | OVCAR-4 > 100 µM | MOLT-4 > 100 µM | HOP-62 > 100 µM | NCI-H460 > 100 µM | SK-OV-3 > 100 µM | KM12 > 100 µM | UACC-62 > 100 µM | SNB-75 > 100 µM | NCI-H23 > 100 µM | EKVX > 100 µM | OVCAR-5 > 100 µM | LOX IMVI > 100 µM | HCT-116 > 100 µM | M14 > 100 µM | RPMI-8226 > 100 µM | A549 > 100 µM | HL-60 > 100 µM | SK-MEL-28 > 100 µM

COC(=O)C1=C(C(=O)OC)C(N(C)C)C(C(=O)OC)=C(C(=O)OC)S1
inactive: A498 > 100 µM | OVCAR-4 > 100 µM | MOLT-4 > 100 µM | HOP-62 > 100 µM | NCI-H460 57.1 µM | NCI/ADR-RES > 100 µM | SK-OV-3 > 100 µM | KM12 > 100 µM | UACC-62 > 100 µM | SNB-75 > 100 µM | NCI-H23 > 100 µM | OVCAR-5 > 100 µM | LOX IMVI > 100 µM | HCT-116 > 100 µM | M14 > 100 µM | RPMI-8226 > 100 µM | A549 > 100 µM | SK-MEL-28 > 100 µM

Cc1ccc(-c2c(C#N)c(-c3ccc([N+](=O)[O-])cc3)c(C#N)c(=O)n2NS(=O)(=O)c2ccccc2)cc1
inactive: A498 57.7 µM | OVCAR-4 28.1 µM | MOLT-4 18.9 µM | HOP-62 30.1 µM | NCI-H460 32.3 µM | NCI/ADR-RES 26.1 µM | SK-OV-3 22.4 µM | KM12 31.6 µM | UACC-62 20.9 µM | SNB-75 28.4 µM | EKVX 40.5 µM | OVCAR-5 64.4 µM | LOX IMVI 25.9 µM | HCT-116 31.7 µM | M14 32.5 µM | A549 36.6 µM | SK-MEL-28 36.3 µM

CCOC(=O)/C(=N/Nc1ccc(Cl)cc1)N1C(=S)N(C)N=C(C)C=C1S
inactive: OVCAR-4 > 100 µM | MOLT-4 > 100 µM | NCI-H460 26.7 µM | NCI/ADR-RES 42.9 µM | SK-OV-3 40.3 µM | KM12 > 100 µM | UACC-62 34.6 µM | SNB-75 24.2 µM | NCI-H23 39 µM | EKVX 24.3 µM | OVCAR-5 > 100 µM | HCT-116 > 100 µM | M14 > 100 µM | RPMI-8226 > 100 µM | A549 61.8 µM | HL-60 > 100 µM | SK-MEL-28 > 100 µM

COC(=O)c1c(-c2ccccc2)c2sc3ccccc3n2c1N
inactive: A498 30.5 µM | OVCAR-4 56.5 µM | HOP-62 31.5 µM | NCI-H460 40.2 µM | NCI/ADR-RES > 100 µM | SK-OV-3 > 100 µM | KM12 26.1 µM | UACC-62 > 100 µM | SNB-75 56.1 µM | NCI-H23 72.1 µM | EKVX 58.3 µM | OVCAR-5 > 100 µM | LOX IMVI 17.3 µM | HCT-116 28.6 µM | M14 76.6 µM | RPMI-8226 > 100 µM | A549 29.6 µM | SK-MEL-28 66.1 µM

COc1ccc(C23C(=O)c4ccccc4N2O[C@H]2C(=O)N(c4ccccc4)C(=O)[C@H]23)cc1 (some centres not stated)
inactive: A498 > 100 µM | OVCAR-4 > 100 µM | MOLT-4 > 100 µM | HOP-62 > 100 µM | NCI-H460 > 100 µM | SK-OV-3 > 100 µM | KM12 > 100 µM | UACC-62 > 100 µM | SNB-75 > 100 µM | NCI-H23 > 100 µM | EKVX > 100 µM | OVCAR-5 > 100 µM | LOX IMVI > 100 µM | HCT-116 > 100 µM | M14 > 100 µM | RPMI-8226 > 100 µM | A549 > 100 µM | HL-60 > 100 µM | SK-MEL-28 > 100 µM
